Measured values reported in patent publication US20230127839A1, “COMPOUNDS AND COMPOSITIONS FOR TREATING CONDITIONS ASSOCIATED WITH STING ACTIVITY” (IFM Due, Inc., priority 2019, published 2023).

What follows are compounds tested against T1, hSTING (Homo sapiens, UniProt Q86WV6, G230A/H232R/R293Q/R71H) (assay: STING reporter assay (luciferase) in THP1-Dual KO-IFNAR2 cells stimulated with 2'3'cGAMP). Details: 2'3'cGAMP 15 μM, 24 h, luciferase reporter activity.
T1 construct: host or cells: THP1-Dual KO-IFNAR2 cells
T1 sequence (Q86WV6 whole entry R71H/G230A/H232R/R293Q): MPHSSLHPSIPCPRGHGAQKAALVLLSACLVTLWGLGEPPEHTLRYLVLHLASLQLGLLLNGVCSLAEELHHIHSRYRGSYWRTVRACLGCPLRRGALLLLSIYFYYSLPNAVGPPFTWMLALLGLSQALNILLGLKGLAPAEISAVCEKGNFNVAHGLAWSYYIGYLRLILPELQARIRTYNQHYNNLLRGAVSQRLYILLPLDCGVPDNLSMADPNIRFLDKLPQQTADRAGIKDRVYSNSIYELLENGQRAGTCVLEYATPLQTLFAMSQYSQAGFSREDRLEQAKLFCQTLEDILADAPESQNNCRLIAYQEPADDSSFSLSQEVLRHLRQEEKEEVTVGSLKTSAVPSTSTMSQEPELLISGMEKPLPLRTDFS
Assay type: cell-based
Protocol: STING pathway activation by the compounds described herein is measured using THP1-Dual™ cells (KO-IFNAR2).
THP1-Dual™ KO-IFNAR2 Cells (obtained from invivogen) are maintained in RPMI, 10% FCS, 5 ml P/S, 2 mM L-glut, 10 mM Hepes, and 1 mM sodium pyruvate.
Compounds are spotted in empty 384 well tissue culture plates (Greiner 781182) by Echo for a final concentration of 0.0017-100 μM. Cells are plated into the TC plates at 40 μL per well, 2×10E6 cells/mL. For activation with STING ligand, 2′3′cGAMP (MW 718.38, obtained from Invivogen), is prepared in Optimem media.
The following solutions are prepared for each 1×384 plate: • Solution A: 2 mL Optimem with one of the following stimuli: • 60 uL of 10 mM 2′3′cGAMP->150 μM stock • Solution B: 2 mL Optimem with 60 μL Lipofectamine 2000->Incubate 5 min at RT
2 mL of solution A and 2 ml Solution B is mixed and incubated for 20 min at room temperature (RT). 20 uL of transfection solution (A+B) is added on top of the plated cells, with a final 2′3′cGAMP concentration of 15 μM. The plates are then centrifuged immediately at 340 g for 1 minute, after which they are incubated at 37° C., 5% CO2, >98% humidity for 24 h. Luciferase reporter activity is then measured. EC50 values are calculated by using standard methods known in the art.
Luciferase reporter assay: 10 μL of supernatant from the assay is transferred to white 384-plate with flat bottom and squared wells. One pouch of QUANTI-Luc™ Plus us dissolved in 25 mL of water. 100 μL of QLC Stabilizer per 25 mL of QUANTI-Luc™ Plus solution is added. 50 μL of QUANTI-Luc™ Plus/QLC solution per well is then added. Luminescence is measured on a Platereader (e.g., Spectramax I3X (Molecular Devices GF3637001)).
Luciferase reporter activity is then measured. EC50 values are calculated by using standard methods known in the art.
COCCO[C@H]1CCN(c2ncc(NC(=O)Nc3c[nH]c4cc(F)c(F)cc34)cc2Cl)C1 [Compound 150, (S)-1-(5-chloro-6-(3-(2-methoxyethoxy)pyrrolidin-1-yl)pyridin-3-yl)-3-(5,6-difluoro-1H-indol-3-yl)urea] was tested, and the EC50 was 200 to 1000 nM. With Cc1cc(NC(=O)Nc2c[nH]c3cc(F)c(F)cc23)cnc1N1CCO[C@@H](C)C1 [Compound 151, (S)-1-(5,6-difluoro-1H-indol-3-yl)-3-(5-methyl-6-(2-methylmorpholino)pyridin-3-yl)urea] the EC50 was 200 to 1000 nM. COCCO[C@@H]1CCN(c2ncc(NC(=O)Nc3c[nH]c4cc(F)c(F)cc34)cc2C)C1 [Compound 152, (R)-1-(5,6-difluoro-1H-indol-3-yl)-3-(6-(3-(2-methoxyethoxy)pyrrolidin-1-yl)-5-methylpyridin-3-yl)urea] gave an EC50 of 1000 to 5000 nM. CC1(C)CN(c2ncc(NC(=O)Nc3c[nH]c4cc(F)c(F)cc34)cc2Cl)CCO1 [Compound 153, 1-(5-chloro-6-(2,2-dimethylmorpholino)pyridin-3-yl)-3-(5,6-difluoro-1H-indol-3-yl)urea] showed an EC50 of 40 to 200 nM. O=C(Nc1cc(Cl)c(C2CCC(F)(F)CC2)cn1)Nc1c[nH]c2cc(F)c(F)cc12 [Compound 154, 1-(4-chloro-5-(4,4-difluorocyclohexyl)pyridin-2-yl)-3-(5,6-difluoro-1H-indol-3-yl)urea] was tested, and the EC50 was 40 to 200 nM. In the case of O=C(Nc1ccc(N2CC3(C2)CC(F)(F)C3)nc1)Nc1c[nH]c2ccc(Cl)cc12 [Compound 155, 1-(5-chloro-1H-indol-3-yl)-3-(6-(6,6-difluoro-2-azaspiro[3.3]heptan-2-yl)pyridin-3-yl)urea], the EC50 is reported as 40 to 200 nM. Work on Cc1cc(NC(=O)Nc2c[nH]c3ccc(Cl)cc23)cnc1C1CCC(F)(F)CC1 [Compound 156, 1-(5-chloro-1H-indol-3-yl)-3-(6-(4,4-difluorocyclohexyl)-5-methylpyridin-3-yl)urea] yielded an EC50 of 40 to 200 nM. O=C(Nc1cnc(C2CCC(F)(F)CC2)c(Cl)c1)Nc1c[nH]c2ccc(Cl)cc12 [Compound 157, 1-(5-chloro-1H-indol-3-yl)-3-(5-chloro-6-(4,4-difluorocyclohexyl)pyridin-3-yl)urea] was tested, and the EC50 was 40 to 200 nM. C[C@@H]1CN(c2ncc(NC(=O)Nc3c[nH]c4cc(F)c(F)cc34)cc2Cl)CCO1 [Compound 158, (R)-1-(5-chloro-6-(2-methylmorpholino)pyridin-3-yl)-3-(5,6-difluoro-1H-indol-3-yl)urea] was tested, and the EC50 was 200 to 1000 nM. O=C(Nc1cnc(C2CCC(F)(F)CC2)c(Cl)c1)Nc1c[nH]c2ccc(C(F)F)cc12 [Compound 159, 1-(5-chloro-6-(4,4-difluorocyclohexyl)pyridin-3-yl)-3-(5-(difluoromethyl)-1H-indol-3-yl)urea] gave an EC50 of 40 to 200 nM. In the case of Cc1cc(NC(=O)Nc2c[nH]c3cc(F)c(F)cc23)cnc1N1CC2(COC2)C1 [Compound 160, 1-(5,6-difluoro-1H-indol-3-yl)-3-(5-methyl-6-(2-oxa-6-azaspiro[3.3]heptan-6-yl)pyridin-3-yl)urea], the EC50 is reported as over 30000 nM. In the case of Cc1cc(NC(=O)Nc2c[nH]c3cc(F)c(F)cc23)cnc1N1CC2(CC(O)C2)C1 [Compound 161, 1-(5,6-difluoro-1H-indol-3-yl)-3-(6-(6-hydroxy-2-azaspiro[3.3]heptan-2-yl)-5-methylpyridin-3-yl)urea], the EC50 is reported as 5000 to 100000 nM. For Cc1cc(NC(=O)Nc2c[nH]c3cc(F)c(F)cc23)cnc1N1CC(F)(F)C1 [Compound 162, 1-(5,6-difluoro-1H-indol-3-yl)-3-(6-(3,3-difluoroazetidin-1-yl)-5-methylpyridin-3-yl)urea], the EC50 was 200 to 1000 nM. Work on N#Cc1cc(NC(=O)Nc2c[nH]c3cc(F)c(F)cc23)cnc1N1CCC(F)(F)CC1 [Compound 163, 1-(5-cyano-6-(4,4-difluoropiperidin-1-yl)pyridin-3-yl)-3-(5,6-difluoro-1H-indol-3-yl)urea] yielded an EC50 of 40 to 200 nM. Work on Cc1cc(NC(=O)Nc2c[nH]c3ccc(CCO)cc23)cnc1N1CCC(F)(F)CC1 [Compound 164, 1-(6-(4,4-difluoropiperidin-1-yl)-5-methylpyridin-3-yl)-3-(5-(2-hydroxyethyl)-1H-indol-3-yl)urea] yielded an EC50 of 1000 to 5000 nM. O=C(Nc1cnc(N2CCOCC2)c(Cl)c1)Nc1c[nH]c2cc(F)c(F)cc12 [Compound 165, 1-(5-chloro-6-morpholinopyridin-3-yl)-3-(5,6-difluoro-1H-indol-3-yl)urea] gave an EC50 of 200 to 1000 nM. For Cc1cc(NC(=O)Nc2c[nH]c3cc(F)c(F)cc23)cnc1C1CCN(CC(F)(F)F)CC1 [Compound 166, 1-(5,6-difluoro-1H-indol-3-yl)-3-(5-methyl-6-(1-(2,2,2-trifluoroethyl)piperidin-4-yl)pyridin-3-yl)urea], the EC50 was 200 to 1000 nM. Cc1cc(NC(=O)Nc2c[nH]c3cc(F)c(F)cc23)cnc1N1CC2(C1)CC(F)(F)C2 [Compound 167, 1-(5,6-difluoro-1H-indol-3-yl)-3-(6-(6,6-difluoro-2-azaspiro[3.3]heptan-2-yl)-5-methylpyridin-3-yl)urea] showed an EC50 of 200 to 1000 nM. For COc1cc(NC(=O)Nc2c[nH]c3cc(F)c(F)cc23)cnc1N1CC(F)(F)C1 [Compound 168, 1-(5,6-difluoro-1H-indol-3-yl)-3-(6-(3,3-difluoroazetidin-1-yl)-5-methoxypyridin-3-yl)urea], the EC50 was 200 to 1000 nM. Cc1cc(NC(=O)Nc2c[nH]c3cc(F)c(F)cc23)cnc1C1CCOCC1 [Compound 169, 1-(5,6-difluoro-1H-indol-3-yl)-3-(5-methyl-6-(tetrahydro-2H-pyran-4-yl)pyridin-3-yl)urea] was tested, and the EC50 was 200 to 1000 nM. Work on O=C(Nc1cnc(N2CCC(F)(F)CC2)c(Cl)c1)Nc1c[nH]c2cc(F)c(Cl)cc12 [Compound 170, 1-(5-chloro-6-(4.4-difluoropiperidin-1-yl)pyridin-3-yl)-3-(5-chloro-6-fluoro-1H-indol-3-yl)urea] yielded an EC50 of 40 to 200 nM. In the case of CS(=O)(=O)c1ccc2[nH]cc(NC(=O)Nc3cnc(N4CCC(F)(F)CC4)c(Cl)c3)c2c1 [Compound 171, 1-(5-chloro-6-(4,4-difluoropiperidin-1-yl)pyridin-3-yl)-3-(5-(methylsulfonyl)-1H-indol-3-yl)urea], the EC50 is reported as 5000 to 100000 nM. C#CCC1CCN(c2ccc(NC(=O)Nc3c[nH]c4ccccc34)cn2)CC1 [Compound 172, 1-(1H-indol-3-yl)-3-(6-(4-(prop-2-yn-1-yl)piperidin-1-yl)pyridin-3-yl)urea] gave an EC50 of 200 to 1000 nM. Work on O=C(Nc1cnc(C2CC(F)(F)C2)c(Cl)c1)Nc1c[nH]c2cc(F)c(F)cc12 [Compound 173, 1-(5-chloro-6-(3,3-difluorocyclobutyl)pyridin-3-yl)-3-(5,6-difluoro-1H-indol-3-yl)urea] yielded an EC50 of 200 to 1000 nM. With O=C(Nc1cnc(N2CCC(F)(F)CC2)c(Cl)n1)Nc1c[nH]c2ccc(Cl)cc12 [Compound 174, 1-(5-chloro-1H-indol-3-yl)-3-(6-chloro-5-(4,4-difluoropiperidin-1-yl)pyrazin-2-yl)urea] the EC50 was 40 to 200 nM. In the case of Cc1nc(NC(=O)Nc2c[nH]c3cc(F)c(F)cc23)cnc1N1CCC(F)(F)CC1 [Compound 175, 1-(5,6-difluoro-1H-indol-3-yl)-3-(5-(4,4-difluoropiperidin-1-yl)-6-methylpyrazin-2-yl)urea], the EC50 is reported as 200 to 1000 nM. O=C(Nc1cnc(N2CCC3(CCCCO3)CC2)c(Cl)c1)Nc1c[nH]c2cc(F)c(F)cc12 [Compound 176, 1-(5-chloro-6-(1-oxa-9-azaspiro[5.5]undecan-9-yl)pyridin-3-yl)-3-(5,6-difluoro-1H-indol-3-yl)urea] was tested, and the EC50 was 200 to 1000 nM. COCCC1CCN(c2ncc(NC(=O)Nc3c[nH]c4cc(F)c(F)cc34)cc2Cl)CC1 [Compound 177, 1-(5-chloro-6-(4-(2-methoxyethyl)piperidin-1-yl)pyridin-3-yl)-3-(5,6-difluoro-1H-indol-3-yl)urea] was tested, and the EC50 was 40 to 200 nM. For O=C(Nc1cnc(N2CCC(F)(F)CC2)nc1)Nc1c[nH]c2ccccc12 [Compound 178, 1-(2-(4,4-difluoropiperidin-1-yl)pyrimidin-5-yl)-3-(1H-indol-3-yl)urea], the EC50 was 1000 to 5000 nM. For O=C(Nc1cnc(N2CCC(F)(F)CC2)nc1)Nc1c[nH]c2cc(F)c(F)cc12 [Compound 179, 1-(5,6-difluoro-1H-indol-3-yl)-3-(2-(4,4-difluoropiperidin-1-yl)pyrimidin-5-yl)urea], the EC50 was 200 to 1000 nM. O=C(Nc1cnc(N2CCC(F)(F)CC2)nc1)Nc1c[nH]c2ccc(Cl)cc12 [Compound 180, 1-(5-chloro-1H-indol-3-yl)-3-(2-(4,4-difluoropiperidin-1-yl)pyrimidin-5-yl)urea] gave an EC50 of 40 to 200 nM. With N#Cc1ccc2[nH]cc(NC(=O)Nc3cnc(N4CCC(F)(F)CC4)c(Cl)c3)c2c1 [Compound 181, 1-(5-chloro-6-(4,4-difluoropiperidin-1-yl)pyridin-3-yl)-3-(5-cyano-1H-indol-3-yl)urea] the EC50 was 40 to 200 nM.
